In PubChem BioAssay AID226 (DTP/NCI, 2004):
“And” between values parts separate entries of the source, which are not always exact repeats. Equal entries are not always repeated. Toxic doses and inconclusive results are not listed. How the source made its calls: active means survival T/C of 150% or more; inactive means T/C below 125% in these data.

Tested on: B6C3F1 mice, intracerebral ependymoblastoma, median survival T/C
Assay: NCI In Vivo Anticancer Drug Screen. Data for tumor model Ependymoblastoma (intracerebral) in B6C3F1 mice
Conditions: endpoint: median survival time, higher = longer survival
Protocol: The antitumor activity of compounds was measured in mice bearing transplantable tumors. Survival or tumor size were measured and the results are expressed as the measurement made in the treated group (T) divided by the measurement made in the vehicle treated control group (C). The tumor model used in this assay is Ependymoblastoma (intracerebral) in B6C3F1 mice

Measured: T/C

COC(=O)[C@@]12OC[C@]34[C@H]([C@@H](O)[C@@H]1O)[C@@]1(C)CC(=O)C(O)=C(C)[C@@H]1C[C@H]3OC(=O)[C@H](OC(=O)/C=C(\C)C(C)C)[C@@H]24
inactive: dose: 0.03 mg/kg/injection, schedule: Q01DX005 (ip), vehicle: saline + alcohol 100 % of control and 101 % of control | dose: 0.06 mg/kg/injection, schedule: Q01DX005 (ip), vehicle: saline + alcohol 92 % of control and 97 % of control | dose: 0.12 mg/kg/injection, schedule: Q01DX005 (ip), vehicle: saline + alcohol 98 % of control and 101 % of control | dose: 0.12 mg/kg/injection, schedule: Q01DX005 (oral), vehicle: saline 100 % of control | dose: 0.12 mg/kg/injection, schedule: Q12HX006 (ip), vehicle: saline 109 % of control | dose: 0.25 mg/kg/injection, schedule: Q01DX005 (ip), vehicle: saline + alcohol 95 % of control and 96 % of control | dose: 0.25 mg/kg/injection, schedule: Q12HX002 (ip), vehicle: saline 107 % of control | dose: 0.25 mg/kg/injection, schedule: Q12HX006 (ip), vehicle: saline 116 % of control | dose: 0.5 mg/kg/injection, schedule: Q01DX001 (ip), vehicle: saline 111 % of control and 115 % of control and 116 % of control | dose: 0.5 mg/kg/injection, schedule: Q01DX005 (ip), vehicle: saline + alcohol 92 % of control and 95 % of control | dose: 0.5 mg/kg/injection, schedule: Q01DX005 (oral), vehicle: saline 101 % of control | dose: 0.5 mg/kg/injection, schedule: Q12HX002 (ip), vehicle: saline 107 % of control | dose: 0.5 mg/kg/injection, schedule: Q12HX006 (ip), vehicle: saline 116 % of control | dose: 1.0 mg/kg/injection, schedule: Q01DX001 (ip), vehicle: saline 101 % of control and 110 % of control and 111 % of control | dose: 1.0 mg/kg/injection, schedule: Q01DX005 (ip), vehicle: saline + alcohol 95 % of control and 100 % of control | dose: 1.0 mg/kg/injection, schedule: Q01DX005 (oral), vehicle: saline 100 % of control | dose: 1.0 mg/kg/injection, schedule: Q12HX002 (ip), vehicle: saline 102 % of control | dose: 1.0 mg/kg/injection, schedule: Q12HX006 (ip), vehicle: saline 119 % of control | dose: 2.0 mg/kg/injection, schedule: Q01DX001 (ip), vehicle: saline 119 % of control and 123 % of control | dose: 2.0 mg/kg/injection, schedule: Q01DX001 (oral), vehicle: saline 101 % of control and 109 % of control and 115 % of control | dose: 2.0 mg/kg/injection, schedule: Q01DX005 (ip), vehicle: saline + alcohol 98 % of control | dose: 2.0 mg/kg/injection, schedule: Q01DX005 (oral), vehicle: saline 105 % of control | dose: 2.0 mg/kg/injection, schedule: Q12HX002 (ip), vehicle: saline 110 % of control | dose: 4.0 mg/kg/injection, schedule: Q01DX001 (ip), vehicle: saline 115 % of control | dose: 4.0 mg/kg/injection, schedule: Q01DX001 (oral), vehicle: saline 95 % of control and 101 % of control and 123 % of control | dose: 4.0 mg/kg/injection, schedule: Q12HX002 (ip), vehicle: saline 101 % of control | dose: 8.0 mg/kg/injection, schedule: Q01DX001 (oral), vehicle: saline 95 % of control and 96 % of control and 108 % of control | dose: 16.0 mg/kg/injection, schedule: Q01DX001 (oral), vehicle: saline 105 % of control

Nc1nc(=S)c2ncn(C3OC(COC(=O)c4ccccc4)C(OC(=O)c4ccccc4)C3OC(=O)c3ccccc3)c2[nH]1 (stereo unspecified)
inactive: dose: 12.5 mg/kg/injection, schedule: Q01DX005 (ip), vehicle: saline with Tween-80 100 % of control | dose: 25.0 mg/kg/injection, schedule: Q01DX005 (ip), vehicle: saline with Tween-80 100 % of control | dose: 50.0 mg/kg/injection, schedule: Q01DX005 (ip), vehicle: saline with Tween-80 105 % of control
